# Reference: PMC9740559, “Molecular and Pharmacological Characterization of β-Adrenergic-like Octopamine Receptors in the Endoparasitoid Cotesia chilonis (Hymenoptera: Braconidae)” (International Journal of Molecular Sciences, 2022)
# Tests used:
# [1] = test system: T1, CcOctβ1R; assay: cAMP production in stable CHO-K1 cells (cAMP immunoassay); format: cell-based, Cotesia chilonis; settings: agonist; 100 μM IBMX; 25 °C
# T1 construct: gene Octβ1R; full-length ORF, 417 residues; pcDNA3.0 vector with hemagglutinin A tag
# Text: cAMP production in stable CHO-K1 cells (cAMP immunoassay) on CcOctβ1R
# [2] = test system: T2, CcOctβ2R; assay: as above; format: cell-based, Cotesia chilonis; settings: agonist; 100 μM IBMX; 25 °C
# T2 construct: gene Octβ2R; full-length ORF, 435 residues; pcDNA3.0 vector with hemagglutinin A tag
# Text: cAMP production in stable CHO-K1 cells (cAMP immunoassay) on CcOctβ2R
# [3] = test system: T3, CcOctβ3R; assay: as above; format: cell-based, Cotesia chilonis; settings: agonist; 100 μM IBMX; 25 °C
# T3 construct: gene Octβ3R; full-length ORF, 358 residues; pcDNA3.0 vector with hemagglutinin A tag
# Text: cAMP production in stable CHO-K1 cells (cAMP immunoassay) on CcOctβ3R
# [4] = test system: T4, CcOctβ1R; settings: read-out: CcOctβ1R / IC50; antagonist; non-saturating OA (100 nM); 100 μM IBMX; 25 °C
# T4 construct: gene Octβ1R
# Text: inhibition of OA-induced cAMP in stable CHO-K1 cells (cAMP immunoassay) on CcOctβ1R
# [5] = test system: T5, CcOctβ2R; settings: read-out: CcOctβ2R / IC50; antagonist; non-saturating OA (30 nM); 100 μM IBMX; 25 °C
# T5 construct: gene Octβ2R
# Text: inhibition of OA-induced cAMP in stable CHO-K1 cells (cAMP immunoassay) on CcOctβ2R
# [6] = test system: T6, CcOctβ3R; settings: read-out: CcOctβ3R / IC50; antagonist; non-saturating OA (300 nM); 100 μM IBMX; 25 °C
# T6 construct: gene Octβ3R
# Text: inhibition of OA-induced cAMP in stable CHO-K1 cells (cAMP immunoassay) on CcOctβ3R
SMILES,EC50 [1],EC50 [2],EC50 [3],IC50 [4],IC50 [5],IC50 [6]
Cc1ccc(/N=C/N(C)/C=N/c2ccc(C)cc2C)c(C)c1 [Amitraz],16.5 nM,3.27 nM,,,,
"CN=CNc1ccc(C)cc1C [DPMF, N^2-(2,4-dimethylphenyl)-N^1-methyformamidine]",9.25 nM,2.37 nM,4.35 nM,,,
NC1=NCC2c3ccccc3Cc3ccccc3N12 (centres unmarked) [Epinastine],,,,37.6 nM,14.4 nM,7.34 nM
c1ccc2c(CC3=NCCN3)cccc2c1 [Naphazoline],0.231 nM,0.0157 nM,5.06 nM,,,
NC[C@H](O)c1ccc(O)cc1 [OA],39 nM,6.69 nM,33.6 nM,,,
